Read-outs that look alike come from different tables or passages of the source.
What was measured:
PDK1 kinase = biological target: T1, PDK1 kinase (Homo sapiens, UniProt O15530); experiment: PDK1 Kinase Alpha Screen Assay; format: biochemical; conditions: read-out: PDK1 IC50
T1 sequence (O15530 1-556): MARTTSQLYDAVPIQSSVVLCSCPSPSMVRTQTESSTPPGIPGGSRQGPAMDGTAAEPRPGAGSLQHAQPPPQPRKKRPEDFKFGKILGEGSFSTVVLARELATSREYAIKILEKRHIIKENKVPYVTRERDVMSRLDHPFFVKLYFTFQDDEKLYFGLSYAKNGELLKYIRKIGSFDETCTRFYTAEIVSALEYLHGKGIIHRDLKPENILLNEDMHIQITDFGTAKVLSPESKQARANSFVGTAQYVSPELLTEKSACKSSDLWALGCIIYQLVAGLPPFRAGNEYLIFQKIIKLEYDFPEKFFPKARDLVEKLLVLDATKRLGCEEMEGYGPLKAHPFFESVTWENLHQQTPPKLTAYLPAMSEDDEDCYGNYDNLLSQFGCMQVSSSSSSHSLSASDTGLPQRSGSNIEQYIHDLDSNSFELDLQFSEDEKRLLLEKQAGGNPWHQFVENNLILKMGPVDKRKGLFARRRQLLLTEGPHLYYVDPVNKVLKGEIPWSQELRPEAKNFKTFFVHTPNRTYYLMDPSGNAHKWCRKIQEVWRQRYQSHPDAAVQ
Procedure, shortened: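 Compound in DMSO added to PDK1-4 peptide; PDK1/ATP mix starts reaction (final 50 nM peptide, 10 uM ATP). Runs 3-18 hours, stopped with 90 mM EDTA buffer. Antibody/bead mix added, developed overnight at room temperature, then AlphaScreen signal read.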

A2780 cells = experiment: Cell Proliferation Assay (Cell Titer Glo), A2780; format: cell-based; conditions: Homo sapiens, read-out: CPEC50 A2780
Procedure, shortened: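 Cells seeded at 1000/well, allowed to adhere 3-5 h, then exposed to DMSO-dissolved compounds for 3 days at 37° C., 5% CO2. Medium replaced before Cell Titer Glo addition; luminescence read after 10 min.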

PC-3 cells = experiment: Cell Proliferation Assay (Cell Titer Glo), PC-3 cell line; format: cell-based; conditions: Homo sapiens
Procedure, shortened: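 PC-3 cells, 1000 cells/well, left to adhere 3-5 h, then exposed for 3 days at 37° C to compounds as 1:3 serial dilutions from 500× DMSO stocks diluted in growth medium. Medium then replaced with fresh medium and viability read by Cell Titer Glo luminescence.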

[1] = cell proliferation, A2780 cells
[2] = PC-3, cell proliferation, PC3 cells, read-out: CPEC50 PC3
[3] = Cell Proliferation Assay, A2780
[4] = PC-3, Cell Proliferation Assay, PC3, read-out: CPEC50 PC3
[5] = PC-3, PC3 cells, read-out: CPEC50 PC3

Row | Compound | IC50 (PDK1 kinase; PDK1 Kinase Alpha Screen Assay) [µM] | EC50 (A2780 cells; [1]) [µM] | EC50 (PC-3 cells; [2]) [µM] | EC50 (A2780 cells; [3]) [µM] | EC50 (PC-3 cells; [4]) [µM] | further results
1 | Cn1cc(-c2ccc3cnc(Nc4ccc(S(N)(=O)=O)cc4)nc3c2-c2ccc(N3CCOCC3)nc2)cn1 [Compound 909, 4-(7-(1-methyl-1H-pyrazol-4-yl)-8-(6-morpholinopyridin-3-yl)quinazolin-2-ylamino)benzenesulfonamide] | < 5 | < 5 | < 5 |  |  | 
2 | c1csc(-c2cc3cnc(Nc4ccc(N5CCOCC5)cc4)nc3cc2OC2CCNCC2)n1 [Compound 645, N-(4-morpholinophenyl)-7-(piperidin-4-yloxy)-6-(thiazol-2-yl)quinazolin-2-amine] | < 5 |  |  | < 5 | < 5 | 
3 | NS(=O)(=O)c1ccc(Nc2ncc3cc(F)cc(-c4ccc(N5CCS(=O)(=O)CC5)nc4)c3n2)cc1 [Compound 913] | < 5 | < 5 | < 5 |  |  | 
4 | Cc1ccc(OC2CCNCC2)c2nc(Nc3ccc(C(=O)NC4CC4)cc3)ncc12 [Compound 364, N-cyclopropyl-4-(5-methyl-8-(piperidin-4-yloxy)quinazolin-2-ylamino)benzamide] | < 5 |  |  | < 5 | < 5 | 
5 | CC(C)N1CCC(COc2cccc3cnc(Nc4ccc(S(N)(=O)=O)cc4)nc23)CC1 [Compound 519, 4-(8-((1-isopropylpiperidin-4-yl)methoxy)quinazolin-2-ylamino)benzenesulfonamide] | < 5 |  |  | < 5 | < 5 | 
6 | CC(C)N1CCC(Oc2ccc3cnc(Nc4ccc(S(=O)(=O)N5CCOCC5)cc4)nc3c2)CC1 [Compound 54, [7-(1-Isopropyl-piperidin-4-yloxy)-quinazolin-2-yl]-[4-(morpholine-4-sulfonyl)-phenyl]-amine] |  |  |  |  |  | IC50 (PDK1 kinase): < 5 µM; EC50 (A2780 cells; 72 h, A2780 cells, 3 days incubation): < 5 µM; EC50 (PC-3 cells; PC-3, 72 h, PC-3 cells, 3 days incubation, read-out: CP EC50 PC3): < 5 µM
7 | CC(C)Oc1cccc2cnc(Nc3ccc(C(N)=O)cn3)nc12 [Compound 520, 6-(8-isopropoxyquinazolin-2-ylamino)nicotinamide] |  |  |  | 5 to 10 | < 5 | 
8 | CC(C)N1CCN(Cc2cccc3cnc(Nc4ccc(S(N)(=O)=O)cc4)nc23)CC1 [Compound 925, 4-(8-((4-isopropylpiperazin-1-yl)methyl)quinazolin-2-ylamino)benzenesulfonamide] |  |  |  |  |  | IC50 (PDK1 kinase): < 5 µM; EC50 (A2780 cells; A2780 cells): < 5 µM; EC50 (PC-3 cells; [5]): 5 to 10 µM
9 | NS(=O)(=O)c1ccc(Nc2ncc3cccc(OC4CCCC4)c3n2)cc1 [Compound 512, 4-(8-(cyclopentyloxy)quinazolin-2-ylamino)benzenesulfonamide] | < 5 |  |  | < 5 | < 5 | 
10 | Cn1cc(-c2ccc3cnc(Nc4ccc(S(N)(=O)=O)cc4)nc3c2-c2ccc(N)nc2)cn1 [Compound 905, 4-(8-(6-aminopyridin-3-yl)-7-(1-methyl-1H-pyrazol-4-yl)quinazolin-2-ylamino)benzenesulfonamide] | < 5 | < 5 | < 5 |  |  | 
11 | NS(=O)(=O)c1ccc(Nc2ncc3ccc(-c4ccccc4)c(OC4CCNCC4)c3n2)cc1 [Compound 911, 4-(7-phenyl-8-(piperidin-4-yloxy)quinazolin-2-ylamino)benzenesulfonamide] | < 5 | < 5 | < 5 |  |  | 
12 | Cn1cc(-c2ccc3cnc(Nc4ccc(S(N)(=O)=O)cc4)nc3c2-c2ccccc2)cn1 [Compound 904, 4-(7-(1-methyl-1H-pyrazol-4-yl)-8-phenylquinazolin-2-ylamino)benzenesulfonamide] | < 5 | < 5 | < 5 |  |  | 
13 | CN1CCN(C(=O)c2ccc(-c3cc(F)cc4cnc(Nc5ccc(S(N)(=O)=O)cc5)nc34)cc2)CC1 [Compound 915, 4-(6-fluoro-8-(4-(4-methylpiperazine-1-carbonyl)phenyl)quinazolin-2-ylamino)benzenesulfonamide] |  |  |  |  |  | IC50 (PDK1 kinase): < 5 µM; EC50 (A2780 cells; A2780 cells): < 5 µM; EC50 (PC-3 cells; [5]): < 5 µM
14 | NS(=O)(=O)c1ccc(Nc2ncc3cc(F)cc(-c4ccc5c(c4)CCNC5=O)c3n2)cc1 [Compound 884, 4-(6-fluoro-8-(1-oxo-1,2,3,4-tetrahydroisoquinolin-6-yl)quinazolin-2-ylamino)benzenesulfonamide] | < 5 | < 5 | < 5 |  |  | 
15 | CC(C)Oc1cccc2cnc(Nc3ccccn3)nc12 [Compound 521, 8-isopropoxy-N-(pyridin-2-yl)quinazolin-2-amine] |  |  |  | 5 to 10 | < 5 | 
16 | NS(=O)(=O)c1ccc(Nc2ncc3cccc(Oc4ccccc4)c3n2)cc1 [Compound 405, 4-(8-phenoxyquinazolin-2-ylamino)benzenesulfonamide] | < 5 |  |  | < 5 | < 5 | 
17 | COCCNc1ccc(-c2cc(F)cc3cnc(Nc4ccc(S(N)(=O)=O)cc4)nc23)cn1 [Compound 893, 4-(6-fluoro-8-(6-(2-methoxyethylamino)pyridin-3-yl)quinazolin-2-ylamino)benzenesulfonamide] | < 5 | < 5 | < 5 |  |  | 
18 | CN1CCN(c2ccc(-c3cc(F)cc4cnc(Nc5ccc(S(N)(=O)=O)cc5)nc34)cn2)CC1 [Compound 888, 4-(6-fluoro-8-(6-(4-methylpiperazin-1-yl)pyridin-3-yl)quinazolin-2-ylamino)benzenesulfonamide] | < 5 | < 5 | < 5 |  |  | 
19 | NS(=O)(=O)c1ccc(Nc2ncc3cc(F)cc(-c4ccc(N5CCOCC5)nc4)c3n2)cc1 [Compound 894, 4-(6-fluoro-8-(6-morpholinopyridin-3-yl)quinazolin-2-ylamino)benzenesulfonamide] | < 5 | < 5 | < 5 |  |  | 
20 | Cn1cc(-c2ccc3cnc(Nc4ccc(S(N)(=O)=O)cc4)nc3c2-c2ccc(F)nc2)cn1 [Compound 907, 4-(8-(6-fluoropyridin-3-yl)-7-(1-methyl-1H-pyrazol-4-yl)quinazolin-2-ylamino)benzenesulfonamide] | < 5 | < 5 | < 5 |  |  | 
21 | Cc1cc2cnc(Nc3ccc(C(=O)N4CCOCC4)cc3)nc2cc1OC1CCNCC1 [Compound 648, (4-(6-methyl-7-(piperidin-4-yloxy)quinazolin-2-ylamino)phenyl)(morpholino)methanone] | < 5 |  |  | < 5 | < 5 | 
22 | CN1CCC(Oc2ccc3cnc(Nc4ccc(S(=O)(=O)N5CCOCC5)cc4)nc3c2)CC1 [Compound 869, 7-(1-methylpiperidin-4-yloxy)-N-(4-(morpholinosulfonyl)phenyl)quinazolin-2-amine] | < 5 | < 5 | < 5 |  |  | 
23 | NS(=O)(=O)c1ccc(Nc2ncc3cccc(OCC4CCNCC4)c3n2)cc1 [Compound 509, 4-(8-(piperidin-4-ylmethoxy)quinazolin-2-ylamino)benzenesulfonamide] | < 5 |  |  | < 5 | < 5 | 
24 | O=C(c1ccc(Nc2ncc3cc(-c4nccs4)c(OC4CCNCC4)cc3n2)cc1)N1CCOCC1 [Compound 649, morpholino(4-(7-(piperidin-4-yloxy)-6-(thiazol-2-yl)quinazolin-2-ylamino)phenyl)methanone] | < 5 |  |  | < 5 | < 5 | 
25 | NS(=O)(=O)c1ccc(Nc2ncc3ccc(-c4ccccn4)c(OC4CCNCC4)c3n2)cc1 [Compound 863, 4-(8-(piperidin-4-yloxy)-7-(pyridin-2-yl)quinazolin-2-ylamino)benzenesulfonamide] | < 5 | < 5 |  |  |  | 

— patent US7932262B2 (Novartis AG, priority 2006, dated 2011)
